Source: article PMC6273138, “Inhibitory Effects of Aschantin on Cytochrome P450 and Uridine 5′-diphospho-glucuronosyltransferase Enzyme Activities in Human Liver Microsomes” (Molecules, 2016)

How the values were obtained:
CYP2C9 = CYP2C9 (Homo sapiens, UniProt P11712); experiment: CYP2C9-catalyzed diclofenac 4′-hydroxylase inhibition in pooled human liver microsomes; conditions: for IC50: CYP2C9 diclofenac 4′-hydroxylase, 10 µM diclofenac
UGT2B7 = target: T1, UGT2B7 (Homo sapiens, UniProt P16662); experiment: UGT2B7-catalyzed naloxone 3-β-D-glucuronidation inhibition in pooled human liver microsomes; format: in vitro ADME
T1 construct: using pooled human liver microsomes incubated with the cocktail of UGT substrates; tissue Corning Life Sciences 452161; host or cells: pooled human liver microsomes
T1 sequence (P16662 24-529): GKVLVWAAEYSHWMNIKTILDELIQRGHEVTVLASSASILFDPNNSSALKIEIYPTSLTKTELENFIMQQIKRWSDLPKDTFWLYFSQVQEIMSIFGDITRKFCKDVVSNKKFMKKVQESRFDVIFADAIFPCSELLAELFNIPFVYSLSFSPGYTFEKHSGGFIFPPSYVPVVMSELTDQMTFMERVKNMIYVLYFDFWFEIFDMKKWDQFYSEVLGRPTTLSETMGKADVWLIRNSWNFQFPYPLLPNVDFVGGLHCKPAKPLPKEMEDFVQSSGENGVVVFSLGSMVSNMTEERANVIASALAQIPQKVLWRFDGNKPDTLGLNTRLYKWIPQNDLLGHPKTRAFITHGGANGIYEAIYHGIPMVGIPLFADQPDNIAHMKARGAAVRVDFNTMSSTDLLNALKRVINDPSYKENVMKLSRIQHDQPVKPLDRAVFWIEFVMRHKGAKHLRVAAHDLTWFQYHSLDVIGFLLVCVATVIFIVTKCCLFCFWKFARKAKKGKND
Procedure: (§1) The extents of aschantin on UGT1A1, UGT1A3, UGT1A4, UGT1A6, UGT1A9, and UGT2B7 were evaluated by LC-MS/MS, using pooled human liver microsomes incubated with the cocktail of UGT substrates. The method was modified from that of Joo et al..
(§2) The metabolites formed from the six UGT cocktail substrates were simultaneously measured using the LC-MS/MS method. […] The mass spectrometer was equipped with an ESI source and was operated in both positive and negative ion modes. […] Each metabolite was quantified via SRM in the negative ion (chenodeoxycholic acid 24-acyl-β-glucuronide, 567.2 > 391.0; mycophenolic acid glucuronide, 495.2 > 318.9; propofol glucuronide, 353.3 > 177.1) and positive ion (SN-38 glucuronide, 569.0 > 393.0; trifluoperazine glucuronide, 584.2 > 408.1; N-acetylserotonin-β-D-glucuronide, 395.2 > 219.0; naloxone 3-β-D-glucuronide, 504.0 > 310.0; meloxicam, 352.0 > 115.1) modes.

CYP2C19 = CYP2C19 (Homo sapiens, UniProt P33261); experiment: Mechanism-based (time- and concentration-dependent) inactivation of CYP2C19 in human liver microsomes; format: in vitro ADME; conditions: CYP2C19-mediated [S]-mephenytoin 4′-hydroxylation
Procedure: (§3) The microsomes (1 mg/mL) were pre-incubated with various concentrations of aschantin in 50 mM potassium phosphate buffer (pH 7.4) in the presence of NADPH. Aliquots (10 µL) of the incubated mixtures were withdrawn at 5, 10, 15, and 20 min after incubation commenced and added to other tubes containing the CYP substrates (2 µM amodiaquine for CYP2C8, 10 µM diclofenac for CYP2C9, 100 µM [S]-mephenytoin for CYP2C19, or 2 µM midazolam for CYP3A4), 1 mM NADPH, 50 mM potassium phosphate buffer (pH 7.4), and 10 mM MgCl2, in 90 µL reaction mixtures. […] Aliquots (5 µL) of the diluted supernatants were analyzed by LC-MS/MS, as described above.

CYP2C8 = target: T2, CYP2C8 (Homo sapiens, UniProt P10632); experiment: Mechanism-based (time- and concentration-dependent) inactivation of CYP2C8 in human liver microsomes; format: in vitro ADME; conditions: CYP2C8-mediated amodiaquine N-de-ethylation
T2 sequence (P10632 1-490): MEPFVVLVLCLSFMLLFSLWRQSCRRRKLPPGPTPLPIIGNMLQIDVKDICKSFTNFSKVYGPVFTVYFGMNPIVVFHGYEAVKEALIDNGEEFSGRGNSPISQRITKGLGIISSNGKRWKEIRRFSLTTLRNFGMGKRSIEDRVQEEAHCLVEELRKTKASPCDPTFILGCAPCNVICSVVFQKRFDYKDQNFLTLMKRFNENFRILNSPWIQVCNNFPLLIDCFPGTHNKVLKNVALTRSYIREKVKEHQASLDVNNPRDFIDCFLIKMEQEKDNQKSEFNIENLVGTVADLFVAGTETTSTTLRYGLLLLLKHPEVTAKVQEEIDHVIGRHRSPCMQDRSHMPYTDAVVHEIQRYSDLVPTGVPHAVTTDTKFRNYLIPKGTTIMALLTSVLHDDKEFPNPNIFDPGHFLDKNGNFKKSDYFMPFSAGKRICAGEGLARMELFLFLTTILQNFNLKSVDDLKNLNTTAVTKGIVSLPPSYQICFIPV
Procedure: as §3

UGT1A1 = target: T3, UGT1A1 (Homo sapiens, UniProt P22309); experiment: UGT1A1-catalyzed SN-38 glucuronidation inhibition in pooled human liver microsomes; format: in vitro ADME; conditions: 0.5 µM SN-38, pooled human liver microsomes
T3 construct: using pooled human liver microsomes incubated with the cocktail of UGT substrates; tissue Corning Life Sciences 452161; host or cells: pooled human liver microsomes
T3 sequence (P22309 26-533): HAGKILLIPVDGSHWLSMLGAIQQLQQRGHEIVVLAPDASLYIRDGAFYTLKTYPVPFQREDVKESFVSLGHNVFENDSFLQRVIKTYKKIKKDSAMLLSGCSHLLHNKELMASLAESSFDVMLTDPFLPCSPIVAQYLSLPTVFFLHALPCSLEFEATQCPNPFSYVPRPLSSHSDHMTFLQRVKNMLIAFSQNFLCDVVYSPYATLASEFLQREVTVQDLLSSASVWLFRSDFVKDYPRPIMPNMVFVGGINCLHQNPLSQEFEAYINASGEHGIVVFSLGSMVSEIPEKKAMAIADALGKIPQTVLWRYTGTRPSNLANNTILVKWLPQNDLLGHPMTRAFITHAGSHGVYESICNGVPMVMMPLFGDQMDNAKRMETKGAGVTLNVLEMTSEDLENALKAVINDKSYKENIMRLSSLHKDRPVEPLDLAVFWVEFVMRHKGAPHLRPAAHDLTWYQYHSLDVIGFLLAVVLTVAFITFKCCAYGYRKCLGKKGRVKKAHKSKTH
Procedure: as §1, §2

Chain of CYP2C9 (P11712 whole entry): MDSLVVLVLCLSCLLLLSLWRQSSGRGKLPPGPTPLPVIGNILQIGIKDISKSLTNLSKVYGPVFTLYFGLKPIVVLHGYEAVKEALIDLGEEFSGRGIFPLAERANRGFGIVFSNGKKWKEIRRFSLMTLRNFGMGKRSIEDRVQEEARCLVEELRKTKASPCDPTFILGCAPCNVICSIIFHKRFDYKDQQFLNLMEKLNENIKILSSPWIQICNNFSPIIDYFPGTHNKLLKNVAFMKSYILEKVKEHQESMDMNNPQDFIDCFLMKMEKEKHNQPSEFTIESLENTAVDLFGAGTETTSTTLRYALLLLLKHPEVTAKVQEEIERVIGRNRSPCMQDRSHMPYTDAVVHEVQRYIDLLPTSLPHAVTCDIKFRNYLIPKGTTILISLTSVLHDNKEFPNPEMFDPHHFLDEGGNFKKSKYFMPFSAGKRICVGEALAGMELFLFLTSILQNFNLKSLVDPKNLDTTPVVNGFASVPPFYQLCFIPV
Chain of CYP2C19 (P33261 whole entry): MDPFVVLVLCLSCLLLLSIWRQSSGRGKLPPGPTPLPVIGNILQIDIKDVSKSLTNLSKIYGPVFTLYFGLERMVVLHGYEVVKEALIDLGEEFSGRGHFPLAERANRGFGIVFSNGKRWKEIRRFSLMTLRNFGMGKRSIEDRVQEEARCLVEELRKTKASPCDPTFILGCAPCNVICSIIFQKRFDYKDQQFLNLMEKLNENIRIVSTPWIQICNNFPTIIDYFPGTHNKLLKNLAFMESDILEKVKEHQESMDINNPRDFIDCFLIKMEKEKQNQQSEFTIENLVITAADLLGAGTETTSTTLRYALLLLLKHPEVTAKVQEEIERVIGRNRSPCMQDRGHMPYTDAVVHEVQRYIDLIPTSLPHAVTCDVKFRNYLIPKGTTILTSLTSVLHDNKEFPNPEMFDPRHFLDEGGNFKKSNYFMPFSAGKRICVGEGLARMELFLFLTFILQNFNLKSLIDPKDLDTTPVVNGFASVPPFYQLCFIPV

Compound `COc1cc([C@H]2OC[C@H]3[C@@H]2CO[C@@H]3c2ccc3c(c2)OCO3)cc(OC)c1OC` [Aschantin] has an IC50 (CYP2C9; IC50 No Pre-incubation, pooled human liver microsomes, no pre-incubation) of 40.5 µM, an IC50 (CYP2C9; IC50 With Pre-incubation, 30 min pre-incubation with microsomes and NADPH) of 14.1 µM and an IC50 shift at 0.5 h (CYP2C9; human, pooled human liver microsomes, pH 7.4, probe diclofenac (10 µM), 4′-hydroxylation) of over 2.5. The IC50 (UGT2B7; UGT2B7-catalyzed naloxone 3-β-D-glucuronidation, 1 µM naloxone, pooled human liver microsomes) was over 200 µM, the “inhibition of UGT2B7-catalyzed naloxone 3-β-D-glucuronidation” value (UGT2B7; aschantin at 200 µM, human liver microsomes) was “not inhibited” and the Ki (CYP2C19; read-out: Ki (apparent)) was 5.8 µM. The kinact (CYP2C19; pH 7.4, probe [S]-mephenytoin (100 µM)) was 0.0008 s⁻¹, the Ki (CYP2C8; read-out: Ki (apparent)) was 10.2 µM and the kinact (CYP2C8; pH 7.4, probe amodiaquine (2 µM)) was 0.000933 s⁻¹. For the same compound, the IC50 (UGT1A1) was 132 µM.
